Source: patent US12599582B2, “Pyrrole compounds” (ALIGOS THERAPEUTICS, INC., priority 2019, dated 2026)

Tested on: HBV
Assay: HBV-DNA Antiviral Assay Using HepG2.2.15 Cells (extracellular HBV DNA by qPCR)
Type: cell-based, hepatitis B virus (HBV)
Settings: Hepatitis B virus; HBV DNA inhibition, HepG2.2.15 cells, extracellular HBV DNA by qPCR; read-out: EC50
Procedure: The following assay procedure describes the HBV antiviral assay. This assay uses HepG2.2.15 cells, which have been transfected with HBV genome, and extracellular HBV DNA quantification as endpoint. Cell viability is assessed in parallel by measuring the intracellular ATP content using the CellTiter-Glo® reagent from Promega.
On day 0, HepG2.2.15 cells were seeded in 96-well plates at a density of 6.0×10^4 cells/well (0.1 mL/well). The cells were incubated at 37° C. and 5% CO2.
On day 1, the test articles were diluted and added to cell culture wells (8 concentrations, 4-fold dilution, in duplicate). GLS4, Tenofovir and Sorafenib were used as reference compounds. 100 μL of culture medium containing the compounds was added to the plate, and the final total volume per well was 200 μL. The final concentration of DMSO in the culture medium was 0.5%. The plate map of compound treatment is shown below. The cells were cultured at 37° C. and 5% CO2 for 3 days.
On day 4, the plates were refreshed with culture media with compounds.
On day 7, cell viability was assessed using the CellTiter-Glo®, and the cell culture supernatants were collected for determination of HBV DNA by qPCR.
Extracellular DNA was isolated with QIAamp 96 DNA Blood Kit per the manufacturer's manual. HBV DNA was then quantified by qPCR with HBV specific primers and probes as specified in Table 1 using the FastStart Universal MasterMix from Roche on an ABI-7900HT. The PCR cycle program consisted of 95° C. for 10 min, followed by 40 cycles at 95° C. for 15 sec and 60° C. for 1 min.
A DNA standard was prepared by dilution of the pAAV2 HBV1.3 plasmid with concentrations ranging from 10 to 1×10^7 copies/uL and used to generate a standard curve by plotting Ct value vs. the concentration of the HBV plasmid DNA standard. The quantity of HBV DNA in each sample was determined by interpolating from the standard curve.
Cell viability was calculated as follows: % Cell viability=(luminescence value of test sample−average luminescence value of blank)/(average luminescence value of 0.5% DMSO control−average luminescence of blank)×100%. HBV DNA inhibition was calculated as follows: 100−(HBV DNA copy number of test sample−HBV DNA copy number of ETV)/HBV DNA copy number of 0.5% DMSO control−HBV DNA copy number of ETV)×100%. The CC50, EC50 and EC90 values were determined by dose-response curves fitted by GraphPad Prism using “log (agonist) vs. response—Variable slope”.

First: C=CC1(NC(=O)C(=O)c2c(Cl)c(C(=O)Nc3ccc(F)c(C#N)c3)n(C)c2C)CC(F)(F)C1 [Compound 51, 3-chloro-N-(3-cyano-4-fluoro-phenyl)-4-[2-[(3,3-difluoro-1-vinyl-cyclobutyl)amino]-2-oxo-acetyl]-1,5-dimethyl-pyrrole-2-carboxamide]
Second: C#CC1(NC(=O)C(=O)c2c(C)c(C(=O)Nc3ccc(Cl)c(Br)c3)n(C)c2C)CC(F)(F)C1 [Compound 133, N-(3-bromo-4-chloro-phenyl)-4-[2-[(1-ethynyl-3,3-difluoro-cyclobutyl)amino]-2-oxo-acetyl]-1,3,5-trimethyl-pyrrole-2-carboxamide]
The EC50 of the first is lower: less than 1 nM for the first, 1 to 10 nM for the second.

First: Cc1c(C(=O)C(=O)NC(C)(C)c2ccc(F)cn2)c(C)n(C)c1C(=O)Nc1ccc(F)c(C#N)c1 [Compound 145, N-(3-cyano-4-fluoro-phenyl)-4-[2-[[1-(5-fluoro-2-pyridyl)-1-methyl-ethyl]amino]-2-oxo-acetyl]-1,3,5-trimethyl-pyrrole-2-carboxamide]
Second: Cc1c(C(=O)C(=O)NC(C)(C)c2cn(C)cn2)c(C)n(C)c1C(=O)Nc1ccc(F)c(C(F)(F)F)c1 [Compound 149, N-[4-fluoro-3-(trifluoromethyl)phenyl]-1,3,5-trimethyl-4-[2-[[1-methyl-1-(1-methylimidazol-4-yl)ethyl]amino]-2-oxo-acetyl]pyrrole-2-carboxamide]
The EC50 of the first is lower: 1 to 10 nM for the first, 100 to 1000 nM for the second. The first is the more potent here.

`C#C[C@@](C)(CO)NC(=O)C(=O)c1c(C)c(C(=O)Nc2ccc(F)c(C(F)(F)F)c2)n(C)c1C` [Compound 66b, (S)—N-(4-fluoro-3-(trifluoromethyl)phenyl)-4-(2-((1-hydroxy-2-methylbut-3-yn-2-yl)amino)-2-oxoacetyl)-1,3,5-trimethyl-1H-pyrrole-2-carboxamide] and `C#CCNC(=O)C(=O)c1c(C)c(C(=O)Nc2ccc(F)c(C(F)(F)F)c2)n(C)c1C` [Compound 1, N-[4-fluoro-3-(trifluoromethyl)phenyl]-1,3,5-trimethyl-4-[2-oxo-2-(prop-2-ynylamino)acetyl]pyrrole-2-carboxamide] fall in the same range of EC50: 1 to 10 nM for the first, 1 to 10 nM for the second.

First: C#CC(CC)(CC)NC(=O)C(=O)c1c(C)c(C(=O)Nc2ccc(F)c(F)c2)n(C)c1C [Compound 89, 4-[2-(1,1-diethylprop-2-ynylamino)-2-oxo-acetyl]-N-(3,4-difluorophenyl)-1,3,5-trimethyl-pyrrole-2-carboxamide]
Second: C#CC1(NC(=O)C(=O)c2c(C)c(C(=O)Nc3ccc(F)c(C(F)(F)F)c3)n(C)c2C)COC1 [Compound 34, 4-[2-[(3-ethynyloxetan-3-yl)amino]-2-oxo-acetyl]-N-[4-fluoro-3-(trifluoromethyl)phenyl]-1,3,5-trimethyl-pyrrole-2-carboxamide]
The EC50 of the first is higher: 1 to 10 nM for the first, less than 1 nM for the second. The second is the more potent here.

`Cc1c(C(=O)C(=O)NC(C)(C)c2cnn(C3CC3)c2)c(C)n(C)c1C(=O)Nc1ccc(F)c(C(F)(F)F)c1` [Compound 136, 4-[2-[[1-(1-cyclopropylpyrazol-4-yl)-1-methyl-ethyl]amino]-2-oxo-acetyl]-N-[4-fluoro-3-(trifluoromethyl)phenyl]-1,3,5-trimethyl-pyrrole-2-carboxamide] and `Cc1c(C(=O)C(=O)NC(C)(C)c2nnco2)c(C)n(C)c1C(=O)Nc1ccc(F)c(C(F)(F)F)c1` [Compound 143, N-[4-fluoro-3-(trifluoromethyl)phenyl]-1,3,5-trimethyl-4-[2-[[1-methyl-1-(1,3,4-oxadiazol-2-yl)ethyl]amino]-2-oxo-acetyl]pyrrole-2-carboxamide] fall in the same range of EC50: 1 to 10 nM for the first, 1 to 10 nM for the second.

First: C#CCNC(=O)C(=O)c1c(F)c(C(=O)Nc2ccc(F)c(C#N)c2)n(C)c1Cl [Compound 12, 5-chloro-N-(3-cyano-4-fluoro-phenyl)-3-fluoro-1-methyl-4-[2-oxo-2-(prop-2-ynylamino)acetyl]pyrrole-2-carboxamide]
Second: C#CCNC(=O)C(=O)c1c(C)c(C(=O)Nc2ccc(F)c(C#N)c2)n(C)c1Cl [Compound 9, 5-chloro-N-(3-cyano-4-fluoro-phenyl)-1,3-dimethyl-4-[2-oxo-2-(prop-2-ynylamino)acetyl]pyrrole-2-carboxamide]
The EC50 of the first is higher: 100 to 1000 nM for the first, 1 to 10 nM for the second.
